# How the values were obtained:
# Hp v633 = assay: Minimum bactericidal concentration, serial dilution and spread plate method; assay type: cell-based, Helicobacter pylori; conditions: cultivated six hours; multidrug-resistant strain v633
# Protocol: (§1) Different concentrations of ovatodiolide are prepared by using serial dilution method, and Helicobacter pylori type strain and multidrug-resistant gastric Helicobacter pylori (v633, v1354) separated from laboratory are cultivated for six hours respectively. Then, ovatodiolide is analyzed by using spread plate method to observe the number of colony growth, and analyze the minimum bactericidal concentrations of ovatodiolide for completely killing Helicobacter pylori type strain and multidrug-resistant strains. Based on the results on Table 2, the minimum bactericidal concentration of ovatodiolide for Helicobacter pylori type strain is 200 μM, and the minimum bactericidal concentrations for multidrug-resistant strains v633 and v1354 are 100 μM.
# [1] = test system: Hp reference strain 26695; assay: as above; assay type: cell-based, Helicobacter pylori; conditions: cultivated six hours; type strain 26695
# Protocol: as §1
# Hp v1354 = assay: as above; assay type: cell-based, Helicobacter pylori; conditions: cultivated six hours; multidrug-resistant strain v1354
# Protocol: as §1
# [2] = test system: Helicobacter pylori type strain (H. pylori 26695); assay: Minimum bacteriostatic concentration by agar-well diffusion (inhibitory rings); assay type: cell-based; conditions: for Inhibitory rings: cultivated two days
# Protocol: Different concentrations of ovatodiolide disks are used to cultivate with Helicobacter pylori for two days respectively. Then, the minimum concentrations for inhibiting Helicobacter pylori are determined by using agar-well diffusion. The results are used for analyzing the minimum concentration of ovatodiolide for inhibiting the growth of Helicobacter pylori type strain (H. pylori 26695). […] Based on the experimental results, 10 μM and 20 μM of ovatodiolide have inhibitory rings; the diameters of the inhibitory rings are 10±0.5 mm and 19±0 mm respectively. This proves that the minimum bacteriostatic concentration of ovatodiolide for inhibiting Helicobacter pylori is 10 μM.
# [3] = test system: extracts of Escherichia coli (E. coli S30); assay: In vitro transcription/translation system with pGL3 luciferase readout; assay type: biochemical; conditions: 10 μM; FIG. 1
# Protocol: The structure of ovatodiolide is similar to that of the medicines in antibiotics for inhibiting protein generation. In order to understand whether the mechanism of ovatodiolide for inhibiting Helicobacter Pylori is related to protein synthesis, let ovatodiolide and extracts of Escherichia coli (E. coli S30) to take effect for 10 minutes by using in vitro transcription/translation systems. Then, pGL3 luciferase is added for carrying out transcription and translation reaction for 2 hours. Finally, the reacted sample is added with luciferin for it to present color by using Dual-Luciferase Reporter Assay System. Then, microplate luminometer is used to determine the […] in order to find out whether ovatodiolide can inhibit protein synthesis.
# Among them, inhibition of 30S subunit using kanamycin and inhibition of […] using erythromycin are used as control groups.
# [4] = test system: protein RpsB in 30S ribosomal subunit; assay: Western blot analysis of RpsB content in Helicobacter pylori lysates; assay type: cell-based; conditions: H. pylori cultivated with ovatodiolide of different concentrations for 6 hours; FIG. 2
# Protocol: In this embodiment, the process of protein translation has three steps, namely, initiation, elongation and termination of ribosomes. In order to further analyze whether ovatodiolide is effected on ribosomes causing protein synthesis unable to proceed smoothly, western blot analysis is used to determine the content of protein RpsB in 30S ribosomal subunit. Helicobacter pylori is cultivated with ovatodiolide of different concentrations for 6 hours, and extract total cell lysates. Separate total cell lysates by using 10% SDS-PAGE, transfer protein using PVDF membrane, and carry out hybridization with protein using RpsB antibody. Then, detect RpsB antibody using anti-rabbit antibody; finally, a chromogenic reagent is added, and observe results by using the apparatus Azure C400 Biosystems.
# FIG. 2 is an expression of 30S ribosomal subunits RpsB analyzed by using western blot analysis. Wherein kanamycin (400 μM) and erythromycin (400 μM) are used as control groups.
compound,measurement,setting,value
C=C1C(=O)O[C@@H]2/C=C(\C)C[C@H]3C=C(CC/C=C(\C)CC[C@@H]12)C(=O)O3 [ovatodiolide],Minimum bactericidal concentration,Hp v633,100 µM
same,Minimum bactericidal concentration,[1],200 µM
same,Minimum bactericidal concentration,Hp v1354,100 µM
same,minimum bacteriostatic concentration,"[2]; agar-well diffusion, H. pylori 26695",10 µM
same,Inhibitory rings,[2]; ovatodiolide 10 μM,10±0.5 mm
same,Inhibitory rings,[2]; ovatodiolide 20 μM,19±0 mm
same,inhibition of protein synthesis,[3],more than 50%
same,expression of protein RpsB,[4],reduces significantly
